Data from patent publication US20250177548A1, “FUSOGENIC PEPTIDE COMPOSITIONS AND METHODS OF CARGO DELIVERY” (CLEMSON UNIVERSITY, priority 2022, published 2025).
Where “and” joins values, the source holds several entries; their conditions need not be identical. Equal values may be shown once. Non-standard residues stand in square brackets, D forms with d. No end group written: not given here. pG = not defined here

Assays:
CAOV3 cells = assay: cellular uptake of labeled siRNA by flow cytometry; format: cell-based; details: for uptake efficiency: 80:1
Method: (§1) Cellular Uptake. OVCAR3 and CAOV3 cells were prepared at 50,000 cells per well in a 24-well plate. […] Post-incubation, media was aspirated and cells were washed with 1× PBS. To counterstain the nuclei, SuperSignal NucBlue Hoechst stain (Thermo Fisher, Waltham, MA) was added to the cells for 30 minutes, followed by an additional 1×PBS wash. Subsequent imaging was performed using an EVOS FL Microscope (Thermo Fisher) at 10× magnification. For flow cytometric analysis, cells were detached, resuspended in 1× PBS, and analyzed using an Attune NXT Acoustic flow cytometer (Invitrogen, Carlsbad, CA) with the blue laser line and BL2 (574/26 nm) channel.
(§2) Cellular Uptake and Targeting Specificity. Observation of cell uptake was performed by seeding OVCAR3 and CAOV3 cells at a density of 50,000 cells per well in a 24-well plate. LHRH and LHRH-DIV3W peptides were complexed with […] as previously described and delivered to cells at 20:1 to 80:1 N:P ratios. Each cell line was incubated with tandem peptide complexes for both 4- and 24-hour treatment periods. Following incubation, cell media was removed, and cells were washed with 1× PBS prior to the addition of 500 μL of 1×PBS and SuperSignal NucBlue Hoescht 33342 nuclear stain (Thermo Fisher, Waltham, MA). Cellular imaging was completed using an EVOS FL Microscope (Thermo Fisher) at 10×, 20×, and 40× magnification. Flow cytometry was completed after cell imaging and cells were trypsinized, resuspended in 1×PBS, and analyzed with an Attune NXT Acoustic Flow Cytometer (Invitrogen) with the red laser line and RL2 […] channel.

CSNK2A1 mRNA = assay: qPCR of CSNK2A1 mRNA in OVCAR3 cells; format: cell-based
Method: qRT-PCR. Cells were seeded at 50,000 cells per well and treated with siRNA targeting CSNK2A1 (siCSNK2A1 #s3638, Thermo Fisher Scientific) at increasing N:P ratios and incubated for a total of 48 hours in McCoys 5A/DMEM-10% FBS. Treated cells were washed with 1×PBS at 24 hours and fresh media was added. RNAisolation was completed using a Qiagen Mini-RNeasy Kit (Qiagen, Hilden, Germany) according to the manufacturer's protocol. RNA isolation quality and quantity were measured through the Gen5 protocol using a Take3 plate (BioTek). RNA was reverse-transcribed using the QuantiTect Reverse Transcription kit (Qiagen). Quantitative real-time PCR was completed with a QuantStudio 3 qPCR system (Applied Biosystems) using Applied Biosystems TaqMan FAST Master Mix (Thermo Fisher) and CSNK2A1 (ID #Hs00751002_s1) and 18S (ID #Hs99999901_s1) predesigned TaqMan probes, according to the manufacturer's protocol.
Gene and Protein Knockdown. Bioactivity of siRNAs was determined via qPCR and western blot analysis. OVCAR3 or CAOV3 cells were seeded at 50,000 cells per well as previously described and treated with siRNA targeting CSNK2A1 and siNT at N:P ratios 30:1, 40:1, 50:1, 60:1, and 70:1. LHRH-DIV3W peptide complexed with either siNT or siCSNK2A1 was incubated for a total of 48 hours in RPMI 1640/DMEM-10% FBS, with one media exchange occurring after the 24-hour timepoint. Treated cells were washed with 1×PBS at 24 hours and fresh media was added. RNA isolation was completed using a Qiagen Mini-RNeasy Kit (Qiagen, Hilden, Germany) according to the manufacturer's protocol. RNA isolation quality and quantity was measured through the Gen5 protocol using a Take3 plate (BioTek). RNA was reverse transcribed using the QuantiTect Reverse Transcription kit (Qiagen) according to the manufacturer's protocol. Quantitative real-time PCR was completed with a QuantStudio 3 qPCR system (Applied Biosystems, Waltham, MA) using Applied Biosystems TaqMan FAST Master Mix (Thermo Fisher) and CSNK2A1 (ID #Hs00751002_s1) and 18S (ID #Hs99999901_s1) predesigned TaqMan probes according to the manufacturer's protocol.

[1] = dynamic light scattering, size and zeta potential of peptide/siRNA complexes; format: physicochemical; details: LHRH-DIV3W peptide/siRNA complexes
Method: Dynamic Light Scattering and Transmission Electron Microscopy. DIV3 (X)-siNT complexes were prepared at 2 mg/mL in RNase-free water. Hydrodynamic size and surface charge of the peptide/siRNA complexes were determined using a Nano ZS Zetasizer (Malvern Pananalytical, Malvern, UK). All data were recorded using Malvern's Zetasizer software.
To determine nanoparticle size and zeta potential, peptides resuspended in RNase-free water (10 μM) were thawed and kept on ice prior to complexation with 10 μM of siNT in RNase-free water and incubated for 20 minutes at room temperature to form DIV3W-siNT and LHRH-DIV3W-siNT complexes. Peptide complexes were prepared at 2 mg/mL in RNase-free water. Hydrodynamic size and surface charge analysis was conducted using a Malvern Nano ZS Zetasizer (Malvern Panalytical, Malvern, UK). All data was analyzed using Malvern's Zetasizer software.

CK2α protein = assay: Western blot of CK2α in OVCAR3 cells; format: cell-based; details: OVCAR3, 48 hours, 50:1 N:P ratio
Method: Western Blot. […] Cells were washed and treated with DIV3 (X)-siRNA complexes as previously described. Following the 48-hour treatment, cells were washed with 1× PBS and lysed with cold radioimmunoprecipitation assay (RIPA) buffer supplemented with protease inhibitor cocktail (Thermo Fisher). Protein concentrations were determined via bicinchoninic assay according to the manufacturer's protocol and absorbance was read at 562 nm. Equivalent protein concentrations for each treatment condition were separated by SDS-PAGE on a BioRad Stain-Free 10% gel according to BioRad protocols and transferred to a Stain-Free PVDF membrane using a wet transfer system. The PVDF membrane was cut at appropriate molecular weight intervals consistent with protein weights, then analyzed and blocked for 1 hour with 5% non-fat dried milk solution in 1× Tris-HCl-buffered-saline-0.1% Tween 20 (TBST) at room temperature. Blots were probed at 4° C. overnight with rabbit monoclonal anti-CK2α antibody (1:1000, Invitrogen) or mouse monoclonal anti-β-actin (1:10,000, Sigma-Aldrich, St. Louis, MO). […] Five additional washes with 1× TBST were performed and protein bands were detected with SuperSignal West Pico Plus Chemiluminescent Substrate (Thermo Fisher) and imaged using a BioRad ChemiDoc Imaging System.

OVCAR3 cells = assay: cellular uptake of labeled siRNA by flow cytometry; format: cell-based; set-up: uptake efficiency higher than DIV3W uptake: concentration or dose not given beside the values; details: for uptake efficiency, tandem vs LHRH peptide: FIG. 10E, 4 hr, cell line not stated
Method: as §1, §2

pGHWSY-(d) LLRPGGGGGWEADIVADIVWDIVADIVAGGG-(d) RRRRRRRRR ([pG]HWSY[dL]LRPGGGGGWEADIVADIVWDIVADIVAGGG[dR][dR][dR][dR][dR][dR][dR][dR][dR]; reading uncertain) [LHRH-DIV3W]
uptake efficiency higher than DIV3W uptake (CAOV3 cells; CAOV3): 11%
uptake efficiency (CAOV3 cells; CAOV3, siNT-Cy5.5, 4 hours): 36.19%+9.67% and 36.19%±16.76%
uptake efficiency (CAOV3 cells; CAOV3, siNT-Cy5.5, 24 hours): 63.47%+4.61% and 63.4%±4.6%
CSNK2A1 mRNA expression, % of negative control (CSNK2A1 mRNA; 50:1, vs LHRH-DIV3W-siNT): 59.75%±12.61%
CSNK2A1 mRNA expression, % of negative control (CSNK2A1 mRNA; 60:1, vs LHRH-DIV3W-siNT): 72.17%±23.19%
CSNK2A1 mRNA expression, % of negative control (CSNK2A1 mRNA; 70:1, vs LHRH-DIV3W-siNT): 51.88%±9.87%
nanoparticle size (DLS) [1]: 154.2±15.9 nm
polydispersity index [1]: 0.18
zeta potential (positive charge) [1]: 33.37±2.00 mV
CK2α protein expression (CK2α protein): slight reduction in protein band intensity
uptake efficiency, tandem vs LHRH peptide (OVCAR3 cells; 40:1): 66.81%±4.3%
uptake efficiency, tandem vs LHRH peptide (OVCAR3 cells; 60:1): 72.59%±6.87%
uptake efficiency, tandem vs LHRH peptide (OVCAR3 cells; 80:1): 76.26%±14.9%
uptake efficiency higher than DIV3W uptake (OVCAR3 cells; OVCAR3): 12%
uptake efficiency (OVCAR3 cells; OVCAR3, siNT-Cy5.5, 4 hours, 80:1): 79.58%+0.61% and 79.58%±1.05%
uptake efficiency (OVCAR3 cells; OVCAR3, siNT-Cy5.5, 24 hours, 80:1): 76.26%±15.56%
